From ChEMBL document CHEMBL1130612, “Exploration of beta-turn scaffolding motifs as components of sialyl Le(X) mimetics and their relevance to P-selectin” (Bioorg Med Chem Lett, 1998)

Molecular target: T1, E-selectin (Homo sapiens, UniProt P16581)
T1 sequence (P16581 whole entry): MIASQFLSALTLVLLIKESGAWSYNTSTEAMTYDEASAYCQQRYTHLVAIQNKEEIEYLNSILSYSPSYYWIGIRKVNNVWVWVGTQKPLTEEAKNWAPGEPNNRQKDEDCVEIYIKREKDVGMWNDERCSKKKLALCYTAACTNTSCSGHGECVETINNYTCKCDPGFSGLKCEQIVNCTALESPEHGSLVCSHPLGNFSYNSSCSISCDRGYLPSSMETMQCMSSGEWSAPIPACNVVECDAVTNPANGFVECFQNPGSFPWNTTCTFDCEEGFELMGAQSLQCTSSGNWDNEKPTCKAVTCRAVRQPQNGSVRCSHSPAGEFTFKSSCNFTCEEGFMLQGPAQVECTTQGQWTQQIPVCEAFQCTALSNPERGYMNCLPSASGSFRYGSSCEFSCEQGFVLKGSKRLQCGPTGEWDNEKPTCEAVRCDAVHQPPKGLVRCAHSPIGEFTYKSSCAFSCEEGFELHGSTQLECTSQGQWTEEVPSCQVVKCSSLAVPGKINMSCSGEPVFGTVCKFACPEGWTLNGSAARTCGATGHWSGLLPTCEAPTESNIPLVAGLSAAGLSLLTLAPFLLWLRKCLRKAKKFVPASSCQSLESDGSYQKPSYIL
Assay: Compound was evaluated for the Selectin E binding activity.

CC(=O)N[C@H]1[C@H]([C@H](O)[C@H](O)CO)O[C@@](O[C@H]2[C@@H](O)[C@@H](CO)O[C@@H](O[C@@H]([C@H](O[C@@H]3O[C@@H](C)[C@@H](O)[C@@H](O)[C@@H]3O)[C@H](C=O)NC(C)=O)[C@H](O)CO)[C@@H]2O)(C(=O)O)C[C@@H]1O [SIALYL LEWIS X]
IC50: > 10 µM
